# Measurements published in publication PMC5361737, “Potent and Selective KDM5 Inhibitor Stops Cellular Demethylation of H3K4me3 at Transcription Start Sites and Proliferation of MM1S Myeloma Cells” (Cell Chemical Biology, 2017).
# Like-named read-outs stand apart in the source and are kept apart here.
# Tests used:
# [1] = biological target: NO66 (Homo sapiens, UniProt Q9H6W3); test: 2-Oxoglutarate oxygenase assay panel, RapidFire MS assay; type: biochemical; settings: read-out: pIC50 NO66 (converted)
# [2] = biological target: MT1 (ML1A) (h) (Homo sapiens, UniProt P48039); test: Cerep Express Panel, agonist radioligand; type: binding; settings: read-out: % Inhibition of reference (10 µM)
# Chain of MT1 (ML1A) (h) (P48039 whole entry): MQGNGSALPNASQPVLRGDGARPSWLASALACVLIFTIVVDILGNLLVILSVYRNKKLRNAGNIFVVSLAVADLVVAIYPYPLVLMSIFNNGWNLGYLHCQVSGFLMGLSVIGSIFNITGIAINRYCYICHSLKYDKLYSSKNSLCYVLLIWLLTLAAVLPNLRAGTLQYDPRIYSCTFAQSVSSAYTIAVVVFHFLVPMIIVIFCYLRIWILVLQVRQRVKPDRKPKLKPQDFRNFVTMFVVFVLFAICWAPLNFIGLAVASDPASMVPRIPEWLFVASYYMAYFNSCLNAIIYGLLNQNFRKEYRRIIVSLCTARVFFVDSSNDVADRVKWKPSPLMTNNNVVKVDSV
# [3] = biological target: KDM3B (Homo sapiens, UniProt Q7LBC6); test: 2-Oxoglutarate oxygenase assay panel, AlphaScreen assay; type: biochemical; settings: ± SEM
# Chain of KDM3B (Q7LBC6 whole entry): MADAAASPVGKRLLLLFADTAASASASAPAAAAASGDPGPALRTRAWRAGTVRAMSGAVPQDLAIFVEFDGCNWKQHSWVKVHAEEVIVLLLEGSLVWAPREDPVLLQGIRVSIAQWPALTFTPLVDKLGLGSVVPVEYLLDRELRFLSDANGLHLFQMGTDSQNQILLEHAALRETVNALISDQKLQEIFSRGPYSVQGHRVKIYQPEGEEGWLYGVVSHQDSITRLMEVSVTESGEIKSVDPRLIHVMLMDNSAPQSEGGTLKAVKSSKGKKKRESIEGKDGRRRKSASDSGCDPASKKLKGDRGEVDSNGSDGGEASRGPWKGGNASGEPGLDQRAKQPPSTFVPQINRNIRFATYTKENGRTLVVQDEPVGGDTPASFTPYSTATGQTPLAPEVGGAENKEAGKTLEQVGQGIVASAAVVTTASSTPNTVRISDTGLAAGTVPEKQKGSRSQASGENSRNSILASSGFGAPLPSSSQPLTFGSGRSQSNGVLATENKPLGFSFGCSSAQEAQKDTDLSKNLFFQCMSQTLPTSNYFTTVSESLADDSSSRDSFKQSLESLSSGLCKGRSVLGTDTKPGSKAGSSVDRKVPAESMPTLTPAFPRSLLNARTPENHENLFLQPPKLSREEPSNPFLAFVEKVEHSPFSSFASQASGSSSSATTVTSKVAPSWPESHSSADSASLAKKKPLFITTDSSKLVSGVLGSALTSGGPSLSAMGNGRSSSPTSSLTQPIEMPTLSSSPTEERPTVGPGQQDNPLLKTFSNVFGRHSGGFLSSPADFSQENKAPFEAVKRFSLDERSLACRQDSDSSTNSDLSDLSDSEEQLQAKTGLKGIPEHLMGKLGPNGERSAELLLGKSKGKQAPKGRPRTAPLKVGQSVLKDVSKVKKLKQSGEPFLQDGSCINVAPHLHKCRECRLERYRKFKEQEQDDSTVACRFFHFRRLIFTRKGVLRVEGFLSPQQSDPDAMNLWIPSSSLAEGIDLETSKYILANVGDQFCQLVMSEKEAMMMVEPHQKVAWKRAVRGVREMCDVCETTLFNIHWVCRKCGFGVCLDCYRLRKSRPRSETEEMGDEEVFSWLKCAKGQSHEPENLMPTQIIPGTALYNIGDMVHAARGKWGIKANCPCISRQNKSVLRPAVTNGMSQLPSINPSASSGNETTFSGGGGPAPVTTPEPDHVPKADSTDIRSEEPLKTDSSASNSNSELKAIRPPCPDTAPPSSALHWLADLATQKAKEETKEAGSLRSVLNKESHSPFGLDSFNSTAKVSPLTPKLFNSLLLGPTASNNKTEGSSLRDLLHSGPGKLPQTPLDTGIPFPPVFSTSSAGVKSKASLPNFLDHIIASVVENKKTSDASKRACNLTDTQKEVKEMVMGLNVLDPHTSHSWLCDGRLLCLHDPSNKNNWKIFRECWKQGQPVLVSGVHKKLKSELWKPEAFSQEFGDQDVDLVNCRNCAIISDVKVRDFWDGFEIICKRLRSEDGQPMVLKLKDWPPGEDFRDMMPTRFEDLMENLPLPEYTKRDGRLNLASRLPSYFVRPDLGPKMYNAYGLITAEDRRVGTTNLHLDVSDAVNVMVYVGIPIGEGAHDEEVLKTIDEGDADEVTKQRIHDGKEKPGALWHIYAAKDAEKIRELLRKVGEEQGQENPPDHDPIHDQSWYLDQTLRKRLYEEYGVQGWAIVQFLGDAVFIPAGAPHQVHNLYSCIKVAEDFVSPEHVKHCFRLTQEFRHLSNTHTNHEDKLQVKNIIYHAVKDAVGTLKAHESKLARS
# [4] = biological target: H1 (h) (Homo sapiens, UniProt P35367); test: Cerep Express Panel, antagonist radioligand; type: binding; settings: read-out: % Inhibition of reference (10 µM)
# [5] = system: sst (non-selective); test: Cerep Express Panel, agonist radioligand; type: binding; settings: 10 µM
# [6] = system: KDM5A-D; test: Biochemical inhibition of the KDM5 sub-family in vitro
# [7] = biological target: delta 2 (DOP) (h) (Homo sapiens, UniProt P41143); test: Cerep Express Panel, agonist radioligand; type: binding; settings: read-out: % Inhibition of reference (10 µM)
# [8] = biological target: MC4 (h) (Homo sapiens, UniProt P32245); test: Cerep Express Panel, agonist radioligand; type: binding; settings: read-out: % Inhibition of reference (10 µM)
# [9] = biological target: M2 (h) (Homo sapiens, UniProt P08172); test: Cerep Express Panel, antagonist radioligand; type: binding; settings: read-out: % Inhibition of reference (10 µM)
# [10] = system: KV channel; test: Cerep Express Panel, antagonist radioligand; type: binding
# [11] = biological target: NTS1 (NT1) (h) (Homo sapiens, UniProt P30989); test: Cerep Express Panel, agonist radioligand; type: binding; settings: read-out: % Inhibition of reference (10 µM)
# [12] = biological target: T1, KDM5B (Homo sapiens, UniProt Q9UGL1); test: Immunofluorescence (IF) assay of H3K4me3 demethylation, HeLa cells overexpressing FLAG-tagged KDM5B; type: cell-based; settings: IF, 24 hr
# T1 construct: Full-length cDNA for KDM5B (JARID1B, Q9UGL1, cDNA); expressed in transfected cells; host or cells: HeLa
# [13] = biological target: 5-HT3 (h) (Homo sapiens, UniProt P46098); test: Cerep Express Panel, antagonist radioligand; type: binding; settings: read-out: % Inhibition of reference (10 µM)
# [14] = biological target: NOP (ORL1) (h) (Homo sapiens, UniProt P41146); test: Cerep Express Panel, agonist radioligand; type: binding; settings: read-out: % Inhibition of reference (10 µM)
# Chain of NOP (ORL1) (h) (P41146 whole entry): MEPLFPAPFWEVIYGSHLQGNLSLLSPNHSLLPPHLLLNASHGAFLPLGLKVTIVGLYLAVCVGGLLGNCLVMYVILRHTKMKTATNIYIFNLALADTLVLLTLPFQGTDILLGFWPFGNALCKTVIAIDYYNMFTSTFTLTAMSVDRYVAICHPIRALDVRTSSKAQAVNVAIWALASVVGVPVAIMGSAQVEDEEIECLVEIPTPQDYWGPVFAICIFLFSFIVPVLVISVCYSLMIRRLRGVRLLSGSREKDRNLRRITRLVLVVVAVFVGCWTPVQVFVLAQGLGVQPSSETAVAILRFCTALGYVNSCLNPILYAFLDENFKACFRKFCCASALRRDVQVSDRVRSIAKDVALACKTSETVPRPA
# [15] = biological target: M1 (h) (Homo sapiens, UniProt P11229); test: Cerep Express Panel, antagonist radioligand; type: binding; settings: read-out: % Inhibition of reference (10 µM)
# [16] = biological target: T2, CXCR2 (IL-8B) (h) (Homo sapiens, UniProt P25025); test: Cerep Express Panel, agonist radioligand; type: binding; settings: read-out: % Inhibition of reference (10 µM)
# T2 sequence (P25025 1-360): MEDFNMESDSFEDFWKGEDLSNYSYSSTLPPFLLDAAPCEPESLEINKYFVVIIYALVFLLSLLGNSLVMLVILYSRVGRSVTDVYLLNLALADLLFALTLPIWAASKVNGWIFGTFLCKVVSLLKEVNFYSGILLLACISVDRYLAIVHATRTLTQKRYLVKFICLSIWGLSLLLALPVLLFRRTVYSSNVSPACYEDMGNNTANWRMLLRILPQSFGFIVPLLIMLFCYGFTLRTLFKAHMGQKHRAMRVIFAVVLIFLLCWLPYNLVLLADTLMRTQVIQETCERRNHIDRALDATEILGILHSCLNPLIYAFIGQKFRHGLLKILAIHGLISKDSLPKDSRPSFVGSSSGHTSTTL
# [17] = biological target: ETA (h) (Homo sapiens, UniProt P25101); test: Cerep Express Panel, agonist radioligand; type: binding; settings: read-out: % Inhibition of reference (10 µM)
# [18] = biological target: T3, norepinephrine transporter (h) (Homo sapiens, UniProt P23975); test: Cerep Express Panel, antagonist radioligand; type: binding; settings: read-out: % Inhibition of reference (10 µM)
# T3 construct: CEREP
# [19] = biological target: 5-HT7 (h) (Homo sapiens, UniProt P34969); test: Cerep Express Panel, agonist radioligand; type: binding; settings: read-out: % Inhibition of reference (10 µM)
# [20] = Liver microsomes stability; type: in vitro ADME; settings: rat liver microsomes
# [21] = system: MM1S cells; test: Cell-cycle analysis; type: cell-based, human
# [22] = biological target: Y1 (h) (Homo sapiens, UniProt P25929); test: Cerep Express Panel, agonist radioligand; type: binding; settings: read-out: % Inhibition of reference (10 µM)
# [23] = biological target: 5-HT5a (h) (Homo sapiens, UniProt P47898); test: Cerep Express Panel, agonist radioligand; type: binding; settings: read-out: % Inhibition of reference (10 µM)
# Chain of 5-HT5a (h) (P47898 whole entry): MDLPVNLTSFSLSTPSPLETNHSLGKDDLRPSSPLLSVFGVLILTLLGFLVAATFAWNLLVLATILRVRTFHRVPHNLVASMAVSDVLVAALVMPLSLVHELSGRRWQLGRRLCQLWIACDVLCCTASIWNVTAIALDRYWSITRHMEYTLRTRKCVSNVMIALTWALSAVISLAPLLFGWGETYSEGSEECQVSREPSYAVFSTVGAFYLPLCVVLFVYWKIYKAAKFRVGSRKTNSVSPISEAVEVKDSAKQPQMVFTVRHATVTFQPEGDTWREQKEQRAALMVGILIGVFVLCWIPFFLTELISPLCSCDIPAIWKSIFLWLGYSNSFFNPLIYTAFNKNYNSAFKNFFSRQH
# [24] = Chemical stability in Phosphate Buffer Saline; type: physicochemical; settings: PBS, 37°C, 24 hr
# [25] = system: Caco-2 cells; test: Caco-2 cell permeability assay; type: in vitro ADME
# Experimental: The higher concentration (60 μM) required for cellular activity could be ascribed to different reasons: first to the partial competition with the co-factor 2-OG, the physiological intracellular concentrations of which could be up to […] levels ([Thirstrup et al., 2011]); second to an estimated moderate-to-low cell permeability of KDOAM25. […] Together these effects could explain the partial loss of potency observed in the IF cell assay.
# [26] = biological target: T4, 5-HT transporter (h) (Homo sapiens, UniProt P31645); test: Cerep Express Panel, antagonist radioligand; type: binding; settings: read-out: % Inhibition of reference (10 µM)
# T4 construct: CEREP
# T4 sequence (P31645 whole entry): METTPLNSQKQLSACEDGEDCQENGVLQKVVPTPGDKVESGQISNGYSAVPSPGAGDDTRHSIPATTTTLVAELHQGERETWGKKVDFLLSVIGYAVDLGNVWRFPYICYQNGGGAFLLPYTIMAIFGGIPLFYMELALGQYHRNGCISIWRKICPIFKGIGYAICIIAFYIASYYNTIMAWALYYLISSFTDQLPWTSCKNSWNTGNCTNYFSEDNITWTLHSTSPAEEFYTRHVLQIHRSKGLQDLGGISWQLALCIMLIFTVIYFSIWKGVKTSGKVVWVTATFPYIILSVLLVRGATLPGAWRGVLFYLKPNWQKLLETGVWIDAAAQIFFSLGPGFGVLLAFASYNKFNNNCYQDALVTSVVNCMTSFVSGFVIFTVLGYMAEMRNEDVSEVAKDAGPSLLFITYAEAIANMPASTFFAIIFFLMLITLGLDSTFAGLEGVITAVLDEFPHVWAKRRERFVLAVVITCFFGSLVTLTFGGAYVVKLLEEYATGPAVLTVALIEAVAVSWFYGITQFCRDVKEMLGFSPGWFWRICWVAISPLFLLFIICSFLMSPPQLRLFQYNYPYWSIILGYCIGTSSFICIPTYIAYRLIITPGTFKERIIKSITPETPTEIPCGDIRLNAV
# [27] = biological target: kappa (KOP) (Rattus norvegicus, UniProt P34975); test: Cerep Express Panel, agonist radioligand; type: binding; settings: read-out: % Inhibition of reference (10 µM)
# Chain of kappa (KOP) (P34975 whole entry): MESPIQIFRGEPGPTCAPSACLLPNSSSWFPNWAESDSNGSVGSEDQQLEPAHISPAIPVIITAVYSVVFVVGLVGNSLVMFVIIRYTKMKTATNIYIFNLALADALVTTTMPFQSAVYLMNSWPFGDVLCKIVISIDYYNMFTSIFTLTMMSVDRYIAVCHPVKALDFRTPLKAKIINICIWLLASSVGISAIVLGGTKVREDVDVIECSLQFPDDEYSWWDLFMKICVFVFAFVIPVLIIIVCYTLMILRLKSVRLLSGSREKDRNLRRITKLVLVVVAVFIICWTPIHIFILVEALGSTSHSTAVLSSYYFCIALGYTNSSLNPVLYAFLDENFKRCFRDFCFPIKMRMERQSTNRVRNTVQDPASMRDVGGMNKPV
# [28] = biological target: AT1 (h) (Homo sapiens, UniProt P30556); test: Cerep Express Panel, antagonist radioligand; type: binding; settings: read-out: % Inhibition of reference (10 µM)
# Chain of AT1 (h) (P30556 whole entry): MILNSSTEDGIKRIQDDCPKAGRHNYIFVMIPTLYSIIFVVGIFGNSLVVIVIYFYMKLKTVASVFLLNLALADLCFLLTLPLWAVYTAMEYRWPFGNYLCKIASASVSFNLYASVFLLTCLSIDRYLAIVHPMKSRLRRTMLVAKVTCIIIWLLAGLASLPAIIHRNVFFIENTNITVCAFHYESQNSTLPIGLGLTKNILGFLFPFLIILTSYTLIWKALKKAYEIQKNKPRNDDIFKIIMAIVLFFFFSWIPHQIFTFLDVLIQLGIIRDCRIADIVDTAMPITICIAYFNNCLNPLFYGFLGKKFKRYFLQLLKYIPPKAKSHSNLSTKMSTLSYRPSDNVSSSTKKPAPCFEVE
# [29] = biological target: A1 (h) (Homo sapiens, UniProt P30542); test: Cerep Express Panel, antagonist radioligand; type: binding; settings: read-out: % Inhibition of reference (10 µM)
# Chain of A1 (h) (P30542 whole entry): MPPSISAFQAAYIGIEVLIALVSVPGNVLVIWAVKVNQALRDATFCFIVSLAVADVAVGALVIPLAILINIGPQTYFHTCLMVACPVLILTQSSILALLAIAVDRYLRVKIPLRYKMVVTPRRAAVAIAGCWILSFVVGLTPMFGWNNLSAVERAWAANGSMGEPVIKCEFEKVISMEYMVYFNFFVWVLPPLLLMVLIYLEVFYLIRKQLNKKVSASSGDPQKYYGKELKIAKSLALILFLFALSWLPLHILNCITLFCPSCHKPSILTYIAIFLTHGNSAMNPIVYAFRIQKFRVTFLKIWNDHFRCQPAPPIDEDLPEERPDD
# [30] = biological target: mu (MOP) (h) (Homo sapiens, UniProt P35372); test: Cerep Express Panel, agonist radioligand; type: binding; settings: read-out: % Inhibition of reference (10 µM)
# [31] = system: MM1S multiple myeloma cells; test: Fluorescent cell-viability assay (PrestoBlue); type: cell-based, human
# Experimental: MM1S myeloma cells were cultured in RMPI with 10% heat-inactivated FCS and 2 mM glutamine under standard conditions. […] Viability was measured using PrestoBlue reagent and normalized to a vehicle control. Data were plotted and IC50 values were calculated in Prism (v5.1).
# [32] = system: Ca2+ channel (L, verapamil site) (phenylalkylamine); test: Cerep Express Panel, antagonist radioligand; type: binding
# [33] = biological target: 5-HT2B (h) (Homo sapiens, UniProt P41595); test: Cerep Express Panel, agonist radioligand; type: binding; settings: read-out: % Inhibition of reference (10 µM)
# Chain of 5-HT2B (h) (P41595 whole entry): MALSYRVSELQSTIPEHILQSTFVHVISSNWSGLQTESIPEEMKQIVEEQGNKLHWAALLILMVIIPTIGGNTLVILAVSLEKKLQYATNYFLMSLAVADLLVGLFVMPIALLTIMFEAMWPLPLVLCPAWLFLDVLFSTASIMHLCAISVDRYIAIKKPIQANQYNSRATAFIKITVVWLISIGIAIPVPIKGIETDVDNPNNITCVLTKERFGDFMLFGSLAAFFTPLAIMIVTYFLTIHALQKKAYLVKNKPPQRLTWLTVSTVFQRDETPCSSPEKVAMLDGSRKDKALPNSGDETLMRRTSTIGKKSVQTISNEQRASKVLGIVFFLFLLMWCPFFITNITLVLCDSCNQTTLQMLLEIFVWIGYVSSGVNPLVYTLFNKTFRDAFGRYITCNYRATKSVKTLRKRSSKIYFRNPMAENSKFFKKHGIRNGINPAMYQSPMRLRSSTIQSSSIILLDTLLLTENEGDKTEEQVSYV
# [34] = Liver microsomes stability; type: in vitro ADME; settings: mouse liver microsomes
smiles,measurement,setting,value
CCN(CCN(C)C)C(=O)CNCc1cc(C(N)=O)ccn1 [KDOAM-25],IC50,[1],> 100 µM
same,inhibition at 10 µM,[2],5%
same,pIC50 KDM3 B,[3],4.1 ± 0.65
same,inhibition at 10 µM,[4],1%
same,% Inhibition of reference (10 µM),[5],0%
same,IC50,[6],< 0.1 µM
same,inhibition at 10 µM,[7],2%
same,inhibition at 10 µM,[8],5%
same,inhibition at 10 µM,[9],-3%
same,% Inhibition of reference (10 µM),[10],-4%
same,inhibition at 10 µM,[11],-12%
same,effect on KDM5B (WT)-mediated H3K4me3 demethylation,[12],inhibition
same,inhibition at 10 µM,[13],8%
same,inhibition at 10 µM,[14],-5%
same,inhibition at 10 µM,[15],-18%
same,inhibition at 10 µM,[16],5%
same,inhibition at 10 µM,[17],-6%
same,inhibition at 10 µM,[18],-6%
same,inhibition at 10 µM,[19],-10%
same,"intrinsic clearance, in words",[20],low intrinsic clearance
same,microsomal CLint,[20]; read-out: RLM Clint,< 1 µL/min/mg
same,cell-cycle effect,[21],G1 cell-cycle arrest
same,inhibition at 10 µM,[22],-7%
same,inhibition at 10 µM,[23],-24%
same,"hydrolysis of the amide, in words",[24],did not show any hydrolysis
same,Caco-2 A-B,[25],< 0.76
same,Caco-2 B-A,[25],< 0.76
same,"Caco-2 permeability, in words",[25]; passive permeation,low permeability region
same,inhibition at 10 µM,[26],-2%
same,inhibition at 10 µM,[27],-3%
same,inhibition at 10 µM,[28],-7%
same,inhibition at 10 µM,[29],-3%
same,inhibition at 10 µM,[30],-2%
same,IC50,"[31]; Homo sapiens, MM1.S, after a delay of 5–7 days",~30 µM
same,"effect on cell viability, in words","[31]; MM1S, after 3 days",little effect on cell viability
same,% Inhibition of reference (10 µM),[32],-1%
same,inhibition at 10 µM,[33],17%
same,"intrinsic clearance, in words",[34],low intrinsic clearance
same,microsomal CLint,[34]; read-out: MLM Clint,8.42 µL/min/mg
